Source: ChEMBL document CHEMBL5385932, “Highly Concentrated Linear Guanidine Amides from the Marine Sipunculid Phascolosoma granulatum” (J Nat Prod, 2024)
Calls of active or inactive are those of the source. No cut-off for these calls is given here.

Legend:
A549 = test: Cytotoxicity against human A549 cells assessed as effect on cell viability at 20 ug/ml by MTT assay; format: functional, cell-based; details: dose 20.0 µg/ml
A2058 = test: Cytotoxicity against human A2058 cells assessed as effect on cell viability at 20 ug/ml by MTT assay; format: functional, cell-based; details: dose 20.0 µg/ml
HepG2 = test: Cytotoxicity against human HepG2 cells assessed as effect on cell viability at 20 ug/ml by MTT assay; format: functional, cell-based; details: dose 20.0 µg/ml
MCF7 = test: Cytotoxicity against human MCF7 cells assessed as effect on cell viability at 20 ug/ml by MTT assay; format: functional, cell-based; details: dose 20.0 µg/ml
MIA PaCa-2 = test: Cytotoxicity against human MIA PaCa-2 cells assessed as effect on cell viability at 20 ug/ml by MTT assay; format: functional, cell-based; details: dose 20.0 µg/ml
Candida albicans = test: Antifungal activity against Candida albicans ATCC64124 assessed as effect on fungal growth at 64 ug/ml; format: functional, organism-based; details: dose 64.0 µg/ml
Nakaseomyces glabratus = test: Antifungal activity against Candida glabrata ATCC2001 assessed as effect on fungal growth at 64 ug/ml; format: functional, organism-based; details: dose 64.0 µg/ml
Pichia kudriavzevii = test: Antifungal activity against Candida krusei ATCC6258 assessed as effect on fungal growth at 64 ug/ml; format: functional, organism-based; details: dose 64.0 µg/ml
Candida parapsilosis = test: Antifungal activity against Candida parapsilosis ATCC22019 assessed as effect on fungal growth at 64 ug/ml; format: functional, organism-based; details: dose 64.0 µg/ml
Candida tropicalis = test: Antifungal activity against Candida tropicalis ATCC750 assessed as effect on fungal growth at 64 ug/ml; format: functional, organism-based; details: dose 64.0 µg/ml
Aspergillus fumigatus = test: Antifungal activity against Aspergillus fumigatus ATCC46645 assessed as effect on fungal growth at 64 ug/ml; format: functional, organism-based; details: dose 64.0 µg/ml
Artemia salina = test: Toxicity in brine shrimp assessed as lethality at 500 uM measured after 24 to 48 hrs by microscopy; format: organism-based; details: in vivo, time 24-48 hrs
Acinetobacter baumannii = test: Antibacterial activity against Acinetobacter baumannii ATCC19606 assessed as effect on bacterial growth at 64 ug/ml; format: functional, organism-based; details: dose 64.0 µg/ml
Escherichia coli = test: Antibacterial activity against Escherichia coli ATCC25922 assessed as effect on bacterial growth at 64 ug/ml; format: functional, organism-based; details: dose 64.0 µg/ml
Staphylococcus aureus = test: Antibacterial activity against methicillin-susceptible Staphylococcus aureus ATCC29213 assessed as effect on bacterial growth at 64 ug/ml; format: functional, organism-based; details: dose 64.0 µg/ml

| SMILES | Activity (A549) | Activity (A2058) | Activity (HepG2) | Activity (MCF7) | Activity (MIA PaCa-2) | Activity (Candida albicans) | Activity (Nakaseomyces glabratus) | Activity (Pichia kudriavzevii) | Activity (Candida parapsilosis) | Activity (Candida tropicalis) | Activity (Aspergillus fumigatus) | Activity (Artemia salina) | Activity (Acinetobacter baumannii) | Activity (Escherichia coli) | Activity (Staphylococcus aureus) |
| --- | --- | --- | --- | --- | --- | --- | --- | --- | --- | --- | --- | --- | --- | --- | --- |
| CC(C)CC[C@@H](C)C(=O)NCCCCNC(=N)N.O=C(O)C(F)(F)F | inactive | inactive | inactive | inactive | inactive | inactive | inactive | inactive | inactive | inactive | inactive | Non-Toxic | inactive | inactive | inactive |
| CC(C)CC[C@@H](C)C(=O)N(C)CCCCNC(=N)N.O=C(O)C(F)(F)F | inactive | inactive | inactive | inactive | inactive | inactive | inactive | inactive | inactive | inactive | inactive | Non-Toxic | inactive | inactive | inactive |
| CC(C)CC[C@@H](C)C(=O)NCCCNC(=N)N.O=C(O)C(F)(F)F | inactive | inactive | inactive | inactive | inactive | inactive | inactive | inactive | inactive | inactive | inactive | Non-Toxic | inactive | inactive | inactive |
| C/C(=C/CCC(C)C)C(=O)NCCCCNC(=N)N.O=C(O)C(F)(F)F | inactive | inactive | inactive | inactive | inactive | inactive | inactive | inactive | inactive | inactive | inactive | Non-Toxic | inactive | inactive | inactive |
| CC(C)C[C@H](O)CC/C=C\CNC(=O)CCNC(=N)N.O=C(O)C(F)(F)F | inactive | inactive | inactive | inactive | inactive |  |  |  |  |  |  | Non-Toxic |  |  |  |
| CC(C)CC(=O)N(C)CCCCNC(=N)N.O=C(O)C(F)(F)F | inactive | inactive | inactive | inactive | inactive |  |  |  |  |  |  | Non-Toxic |  |  |  |
